According to article PMC8778866, “Oral Bioavailability Enhancement of Melanin Concentrating Hormone, Development and In Vitro Pharmaceutical Assessment of Novel Delivery Systems” (Pharmaceutics, 2021):
One block for each compound: values may come before it.

Key:
pepsin [1] = target: T1, pepsin (Sus scrofa, UniProt P00791); experiment: Enzymatic stability in simulated gastric fluid (SGF) with pepsin; format: in vitro ADME, porcine; conditions: SGF with pepsin, 37 °C, 100 rpm, 1 h; RIA; n = 3
T1 construct: purchased Sigma-Aldrich; host or cells: porcine gastric mucosa
T1 sequence (P00791 60-385): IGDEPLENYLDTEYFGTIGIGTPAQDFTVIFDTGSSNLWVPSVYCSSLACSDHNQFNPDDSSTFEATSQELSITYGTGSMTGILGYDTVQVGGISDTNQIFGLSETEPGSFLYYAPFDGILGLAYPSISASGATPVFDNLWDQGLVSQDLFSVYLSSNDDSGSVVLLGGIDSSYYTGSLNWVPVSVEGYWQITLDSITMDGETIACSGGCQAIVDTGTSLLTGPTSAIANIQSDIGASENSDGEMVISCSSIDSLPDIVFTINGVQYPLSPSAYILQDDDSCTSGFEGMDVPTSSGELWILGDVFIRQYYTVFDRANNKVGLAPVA
Experimental: (§1) Enzymatic degradation in the presence of proetolytic enzymes pepsin and pancreatin was investigated. Peptide-loaded particles were added to 100 mL of artificial gastric fluid (simulated gastric fluid—SGF) with pepsin, or artificial intestinal fluid (simulated intestinal fluid—SIF) with pancreatin and incubated at 37 °C under moderate stirring at 100 rpm. SGF and SIF were prepared as per European Pharmacopoeia specifications. A total of 1000 µL samples were collected at determined time intervals for 120 min, and an equal volume of ice-cold reagent was added to stop the enzymatic reaction (0.10 M NaOH for SGF and 0.10 M HCl for SIF). Samples were analyzed by radioimmunoassay.

pepsin [2] = tested on: T2, pepsin; experiment: as above; format: in vitro ADME, porcine; conditions: pig, simulated gastric fluid (SGF) with pepsin; SGF with pepsin (Ph. Eur.), 37 °C, 100 rpm, 30 min; RIA; mean ± SD, n = 3; read-out: active MCH measured after incubation in SGF
T2 construct: purchased Sigma-Aldrich; host or cells: porcine gastric mucosa
Experimental: as §1

pancreatin = experiment: Enzymatic stability in simulated intestinal fluid (SIF) with pancreatin; format: in vitro ADME, porcine; conditions: 37 °C, 100 rpm, RIA, mean ± SD, n = 3
Experimental: as §1

Caco-2 cells = experiment: MTT cell viability assay; format: cell-based, human; conditions: Caco-2, MTT, n = 10
Experimental: A Caco-2 immortalized human adenocarcinoma cell line was purchased from The European Collection of Cell Cultures (ECACC). Cells were seeded and maintained in plastic cell culture flasks in Dulbecco's Modified […] medium (DMEM Sigma-Aldrich Ltd., Budapest, Hungary). Cell culturing media was supplemented with 2 mM L-glutamine, 100 mg/L gentamycin (Sigma-Aldrich Ltd., Budapest, Hungary) and 10% heat inactivated fetal bovine serum (FBS) (Sigma-Aldrich Ltd., Budapest, Hungary). Cells were stored in incubators at 37 °C in a 5% CO2 atmosphere. The colon epithelial Caco-2 cell line forms a single cell layer with well-defined tight junctions. Caco-2 cell viability was evaluated using the MTT method. Cells were harvested and seeded at a density of 10^4 cells/well on flat-bottom 96-well tissue culture plates. Cells were allowed to grow for 7 days under the abovementioned conditions. For the viability measurements, the DMEM was removed. […] Mitochondrial activity of the cells was determined after 3 h incubation with MTT at the concentration of 0.50 mg/mL. […] The absorbance of dissolved formazan crystals correlates with the ratio of the living cells. Absorbance was measured with a FLUOstar OPTIMA Micro-plate Reader (BMG LABTECH, Offenburg, Germany) at 570 nm against a 690 nm reference.

degradation after incubation in SGF (pepsin [1]): completely degraded
remaining at 0.5 h (pepsin [2]): 3 ± 0.5%
MCH recovery after incubation with SIF (pancreatin; SIF with pancreatin, 2 h): 1.00 ± 0.50%
remaining at 0.5 h (pancreatin; pig, simulated intestinal fluid (SIF) with pancreatin, SIF with pancreatin (Ph. Eur.), 30 min, read-out: active MCH measured after incubation in SIF): 8 ± 0.5%
SMILES: CSCC[C@@H]1NC(=O)[C@@H](NC(=O)[C@H](CCCNC(=N)N)NC(=O)[C@H](CC(C)C)NC(=O)[C@H](CCSC)NC(=O)[C@H](CC(=O)O)NC(=O)[C@H](Cc2ccccc2)NC(=O)[C@@H](N)CC(=O)O)CSSC[C@@H](C(=O)N[C@@H](Cc2c[nH]c3ccccc23)C(=O)N[C@@H](CCC(N)=O)C(=O)N[C@H](C(=O)O)C(C)C)NC(=O)[C@@H]2CCCN2C(=O)[C@H](CCCNC(=N)N)NC(=O)[C@H](Cc2ccc(O)cc2)NC(=O)[C@H](C(C)C)NC(=O)[C@H](CCCNC(=N)N)NC(=O)CNC(=O)[C@H](CC(C)C)NC1=O [MCH, Melanin concentrating hormone]

SMILES: CCOCCOCCO [Transcutol HP, Diethylene glycol monoethyl ether]
IC50 (cytotoxicity) (Caco-2 cells; 30 min incubation with sample, 3 h MTT 0.50 mg/mL, absorbance 570 nm): 0.37 v/v%

SMILES: O.O.[Ca+2].[Cl-].[Cl-] [calcium-chloride dihydrate, Calcium chloride dihydrate]
toxicity in MTT assay (in words) (Caco-2 cells; 30 min incubation, also at higher concentrations): did not show relevant toxicity
